Assay results from patent US20110295037A1, “PROCESSES FOR PREPARING CINACALCET HYDROCHLORIDE AND POLYMORPHIC FORMS THEREOF” (MEDICHEM, S.A., priority 2006, published 2011).

Experiment: Particle size distribution (Malvern Mastersizer S, by volume)
Assay type: physicochemical
Details: hydrochloride
Method: VI. Particle Size Distribution Method
The particle size for cinacalcet hydrochloride was measured using a Malvern Mastersizer S particle size analyzer with an MS1 Small Volume Sample Dispersion Unit stirred cell. A 300RF mm lens and a beam length of 2.4 mm were used. Samples for analysis were prepared by dispersing a weighed amount of cinacalcet hydrochloride (approximately 60 mg) in 20 mL of sample dispersant, previously prepared by dilution of 1.5 g of Soybean Lecithin to 200 mL with Isopar G. The suspension was delivered drop-wise to a background corrected measuring cell previously filled with dispersant (Isopar G) until the obscuration reached the desired level. Volume distributions were obtained for three times. After completing the measurements, the sample cell was emptied and cleaned, refilled with suspending medium, and the sampling procedure repeated again. For characterization, the values of D10, D50 and D90 (by volume) were specifically listed, each one being the mean of the nine values available for each characterization parameter.

C[C@@H](NCCCc1cccc(C(F)(F)F)c1)c1cccc2ccccc12.Cl [cinacalcet hydrochloride, N-[1-(R)-(−)-(1-naphthyl)ethyl]-3-[3-(trifluoromethyl)phenyl]-1-aminopropane hydrochloride]
particle size distribution D90 (v) (after milling): 24 μm | particle size distribution D90 (v) (after recrystallization from heptane-isobutylacetate): 263 μm | particle size distribution D90 (v) (after recrystallization from isobutylacetate): 47 μm
